Tests used:
[1] = target: T1, ROCKII (1-543) (Homo sapiens (Human), UniProt O75116); assay: Luciferin-Luciferase Assay (PKLight ATP detection); assay type: biochemical; settings: 750 nM ATP, 500 nM peptide, 7.5 nM kinase
Description: 1. Luciferin-Luciferase Assay
The activity of ROCKII (1-543) kinase was measured utilizing Cambrex PKLight ATP Detection Reagent, a homogeneous assay technology using luciferin-luciferase to quantify residual ATP. The assay was performed in 384-well low-volume, white, non-binding surface microtiter plates (Corning). The assay buffer was 25 mM HEPES, pH 7.5, 10 mM MgCl2, 50 mM KCl, 0.2% BSA, 0.01% CHAPS, 100 μM Na3VO4 and 0.5 mM DTT. Test compounds, dissolved in neat DMSO at 500 μg/mL, were serially diluted for dose response for a final starting concentration of 3 μg/mL in 1% DMSO of assay buffer. ROCKII (1-543) (62,408Da) was diluted in assay buffer to a final concentration of 7.5 nM in a total volume of 15 μL. Positive controls were reaction mixtures containing no test compound; negative controls (blanks) were reaction mixtures containing no kinase. After 15 minutes of pre-incubation of the test compounds with the kinase, a mixture of ATP and peptide substrate ([…]) in assay buffer was added to each well for a final concentration of 750 nM ATP and 500 nM peptide, respectively. After 90 minutes of incubation of the kinase reaction at 28° C. temperature, 10 μL of PKLight ATP Detection Reagent (warmed to room temperature previously) was added to each well. The assay plate was incubated at room temperature for additional 15 minutes and then read on an Analyst in luminescence mode. Dose-response experiments for each of the test compounds were conducted in quadruplet. IC50 values of test compounds represent 50% response of the positive control from the dose-response curve.
Target sequence in this assay (O75116 1-543): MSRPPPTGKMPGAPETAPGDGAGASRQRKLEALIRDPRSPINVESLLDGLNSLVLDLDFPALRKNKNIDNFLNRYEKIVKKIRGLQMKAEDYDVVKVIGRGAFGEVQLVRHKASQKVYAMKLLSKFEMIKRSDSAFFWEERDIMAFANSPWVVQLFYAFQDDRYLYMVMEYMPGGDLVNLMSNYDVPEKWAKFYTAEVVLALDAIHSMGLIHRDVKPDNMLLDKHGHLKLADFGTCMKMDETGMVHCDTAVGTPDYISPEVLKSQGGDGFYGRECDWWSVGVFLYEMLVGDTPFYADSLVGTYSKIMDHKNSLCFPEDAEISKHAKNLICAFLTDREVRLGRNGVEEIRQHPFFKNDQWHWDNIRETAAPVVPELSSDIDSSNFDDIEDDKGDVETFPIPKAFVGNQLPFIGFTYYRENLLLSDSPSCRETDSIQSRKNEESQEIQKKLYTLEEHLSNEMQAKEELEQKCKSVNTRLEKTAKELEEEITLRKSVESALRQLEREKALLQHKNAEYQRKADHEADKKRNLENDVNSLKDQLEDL

[2] = target: T1, ROCKII (1-543); assay: IMAP Assay (fluorescence polarization, FAM S6 peptide); assay type: biochemical; settings: 100 μM ATP, 200 nM FAM S6 peptide, 1 nM kinase; read-out: Assay 2 IC50
Description: This assay is performed using FAM S6 substrate peptide (Catalogue #R7184) and IMAP FP Screening Express Kit detection reagents from Molecular Devices (Sunnyvale, Calif.) in IMAP kinase reaction buffer (Tris-HCl, pH 7.2, 10 mM MgCl2, 0.05% NaN3, 0.1% phosphate-free BSA) containing 1 mM DTT. Test compounds dissolved in neat DMSO at 0.3 mg/mL are serially diluted 1 to 3 for concentration response in 100% DMSO. The DMSO serial dilutions are further diluted 33.33-fold in kinase reaction buffer, and 10 μL of this buffer dilution is transferred to Corning black 96-well half area NBS plates for a final top concentration of 3 μg/mL in 1% DMSO. 10 μL aliquot of 3 nM ROCKII (1-543) diluted in kinase reaction buffer is added to each assay well for a final concentration of 1 nM kinase. 10 μL of a mixture of 600 nM FAM S6 peptide and 300 μM ATP diluted in kinase reaction buffer is added to each well for a final concentration of 200 nM peptide and 100 μM ATP. The kinase reaction mixture is incubated for 60 minutes at room temperature. Positive controls are reaction mixtures containing no test compound and negative controls (blanks) are reaction mixtures containing no kinase. The kinase reaction is stopped by addition of 60 μL IMAP progressive binding reagent (Catalog #R7284) diluted 400-fold in 1× Binding buffer A. After 30 min of incubation at room temperature, the plates are read for fluorescence polarization on Analyst Plate Reader using Ex 485 nm, Em 530 nm, and FL 505 dichroic mirror. The mP signals are converted to percent of control (POC) values using the formula: POC=100*(Signal−BCTRL)÷(PCTRL−BCTRL)
Where Signal is the test well signal, BCTRL is the average of background (negative control) well signals on the plate and PCTRL is the average of positive control well signals on the plate. For the concentration-responsive compounds, POC as a function of test compound concentration is fitted to a 4-parameter logistic equation of the form: Y=A+(B−A)/[1+(x/C)D] Where A, B, C, and D are fitted parameters (parameter B is fixed at zero POC), and x and y are the independent and dependent variables, respectively. The IC50 is determined as the inflection point parameter, C.
Target sequence in this assay (O75116 1-543, species assumed): as the sequence (O75116 1-543) above

Structure (SMILES): COc1ccc(C(=O)N[C@@H](c2cccc(C(=O)Nc3nc4c(s3)CN(C)CC4)c2)C2CC2)cc1Cl [Compound 2]
- IC50 [1]: 2.8 nM

Structure (SMILES): CCCC[C@@H](NC(=O)Nc1cccc(C#N)c1)c1cccc(C(=O)Nc2nc3c(s2)CN(C)CC3)c1 [Compound 4]
- IC50 [1]: 22.4 nM

Structure (SMILES): CN1CCc2nc(NC(=O)c3cccc(N4CCC[C@@H]4C(=O)Nc4ccc(C#N)cc4)c3)sc2C1 [Compound 5, (R)-1-[3-(5-methyl-4,5,6,7-tetrahydro-thiazolo[5,4-c]pyridin-2-ylcarbamoyl)-phenyl]-pyrrolidine-2-carboxylic acid (4-cyano-phenyl)-amide]
- IC50 [1]: 19.1 nM

Structure (SMILES): CCCC[C@@H](NC(=O)c1ccc(OC)c(Cl)c1)c1cccc(C(=O)Nc2nc3c(s2)CN(C)CC3)c1 [Compound 8]
- IC50 [1]: 38.1 nM

Structure (SMILES): CC[C@@H](NC(=O)Nc1cccc(C#N)c1)c1cccc(C(=O)Nc2nc3c(s2)CN(C)CC3)c1 [Compound 10]
- IC50 [1]: 5.7 nM

Structure (SMILES): CC[C@@H](NC(=O)Nc1ccc(C#N)cc1)c1cccc(C(=O)Nc2nc3c(s2)CN(C)CC3)c1 [Compound 12]
- IC50 [1]: 23.1 nM

Structure (SMILES): CC[C@@H](NC(=O)c1ccc(OC)c(Cl)c1)c1cccc(C(=O)Nc2nc3c(s2)CN(C)CC3)c1 [Compound 14]
- IC50 [1]: 3.8 nM

Structure (SMILES): CN1CCc2nc(NC(=O)c3cccc([C@H]4CNC[C@@H]4C(=O)Nc4ccc(C#N)cc4)c3)sc2C1 [Compound 15]
- IC50 [1]: 21.2 nM

Structure (SMILES): C[C@@H](Oc1cccc(C(=O)Nc2nc3c(s2)CN(C)CC3)c1)C(=O)Nc1ccc(C#N)cc1 [Compound 19, 3-[(R)-1-(4-cyano-phenylcarbamoyl)-ethoxy]-N-(5-methyl-4,5,6,7-tetrahydro-thiazolo[5,4-c]pyridin-2-yl)-benzamide]
- IC50 [1]: 35 nM

Structure (SMILES): CN1CCc2nc(NC(=O)c3cccc(N4CCC[C@@H]4C(=O)Nc4cccc(C#N)c4)c3)sc2C1 [Compound 21]
- IC50 [1]: 95.5 nM

Structure (SMILES): CN1CCc2nc(NC(=O)c3cccc(OCC(=O)Nc4ccc5[nH]ncc5c4)c3)sc2C1 [Compound 23]
- IC50 [2]: 0.8 nM

Structure (SMILES): Cc1nc(-c2ccncc2)sc1C(=O)N1CCC[C@@H]1c1cccc(C(=O)Nc2nc3c(s2)CN(C)CC3)c1 [Compound 24]
- IC50 [1]: 12.5 nM

Structure (SMILES): Cc1c(C(=O)N2CCC[C@@H]2c2cccc(C(=O)Nc3nc4c(s3)CN(C)CC4)c2)nnn1-c1nonc1N [Compound 30]
- IC50 [1]: 33.4 nM

Structure (SMILES): CN(C)[C@H]1CCc2nc(NC(=O)c3cccc([C@H]4CCCN4C(=O)Nc4cccc(C#N)c4)c3)sc2C1 [Compound 37]
- IC50 [2]: 0.3 nM

Structure (SMILES): CN1CCc2nc(NC(=O)c3cccc([C@H]4CCCN4C(=O)Nc4ccc(C#N)cc4)c3)sc2C1 [Compound 38]
- IC50 [1]: 15.3 nM

Structure (SMILES): N#Cc1cccc(NC(=O)N2CCCC2c2cccc(C(=O)Nc3ccc4c(c3)CNCC4)c2)c1 (centres unmarked) [Compound 47, 2-[3-(1,2,3,4-tetrahydro-isoquinolin-7-ylcarbamoyl)-phenyl]-pyrrolidine-1-carboxylic acid (3-cyano-phenyl)-amide trifluoroacetic acid]
- IC50 [1]: 17.8 nM

Structure (SMILES): N#Cc1cccc(NC(=O)N2CCC[C@@H]2c2cccc(C(=O)Nc3ccc4c(c3)CNCC4)c2)c1 [Compound 53]
- IC50 [1]: 11.5 nM

Structure (SMILES): CN1CCc2nc(NC(=O)c3cccc(C4CCCN4C(=O)Nc4cccc(C#N)c4)c3)sc2C1 (centres unmarked) [Compound 55]
- IC50 [1]: 8.8 nM

Structure (SMILES): N#Cc1cccc(NC(=O)N2CCCC2c2cccc(C(=O)Nc3nc4c(s3)CN(Cc3ccccc3)CC4)c2)c1 (centres unmarked) [Compound 57]
- IC50 [1]: 20.9 nM

Structure (SMILES): CN1CCc2ccc(NC(=O)c3cccc(C4CCCN4C(=O)Nc4cccc(C#N)c4)c3)cc2C1 (centres unmarked) [Compound 59]
- IC50 [1]: 22.4 nM

Structure (SMILES): CN1CCc2nc(NC(=O)c3cccc(C4CCCN4C(=O)Nc4ccc(C#N)cc4)c3)sc2C1 (centres unmarked) [Compound 61]
- IC50 [1]: 74.4 nM

Structure (SMILES): CN1CCc2nc(NC(=O)c3cccc(C4CCCN4C(=O)Nc4ccc(C(N)=O)cc4)c3)sc2C1 (centres unmarked) [Compound 77]
- IC50 [1]: 5.4 nM

Structure (SMILES): C[C@@H](NC(=O)Nc1cccc(C#N)c1)c1cccc(C(=O)Nc2nc3c(s2)CN(C)CC3)c1 [Compound 81]
- IC50 [1]: 5.5 nM

Structure (SMILES): N#Cc1ccn2cc(C(=O)N3CCC[C@@H]3c3cccc(C(=O)Nc4nc5c(s4)C[C@@H](N4CCOCC4)CC5)c3)nc2c1 [Compound 82]
- IC50 [2]: 1.7 nM

Structure (SMILES): C[C@H](NC(=O)Nc1ccc(C#N)cc1)c1cccc(C(=O)Nc2nc3c(s2)CN(C)CC3)c1 [Compound 83]
- IC50 [1]: 37.8 nM

Structure (SMILES): CN1CCc2nc(NC(=O)c3cccc([C@H]4CCCN4C(=O)c4ccc5[nH]c(=O)ccc5c4)c3)sc2C1 [Compound 84]
- IC50 [1]: 20.8 nM

Structure (SMILES): C[C@@H](NC(=O)Nc1ccc(C#N)cc1)c1cccc(C(=O)Nc2nc3c(s2)CN(C)CC3)c1 [Compound 85]
- IC50 [1]: 22.4 nM

Structure (SMILES): CN1CCc2nc(NC(=O)c3cccc([C@H]4CCCN4C(=O)c4ccc(-c5cc[nH]n5)cc4)c3)sc2C1 [Compound 86]
- IC50 [1]: 44.9 nM

Structure (SMILES): CN(C)[C@H]1CCc2nc(NC(=O)c3cccc([C@H]4CCCN4C(=O)c4ccc(-c5ccncc5)cc4)c3)sc2C1 [Compound 88]
- IC50 [2]: 3.8 nM

Structure (SMILES): CN(C)[C@H]1CCc2nc(NC(=O)c3cccc([C@H]4CCCN4C(=O)c4ccc(-c5cnco5)cc4)c3)sc2C1 [Compound 90]
- IC50 [2]: 2.1 nM

Structure (SMILES): CN(C)[C@H]1CCc2nc(NC(=O)c3cccc([C@H]4CCCN4C(=O)c4csc(-c5cccnc5)n4)c3)sc2C1 [Compound 92]
- IC50 [2]: 1.3 nM

Structure (SMILES): CN(C)[C@H]1CCc2nc(NC(=O)c3cccc([C@H]4CCCN4C(=O)c4csc(-c5ccncc5)n4)c3)sc2C1 [Compound 94]
- IC50 [2]: 2 nM

Structure (SMILES): CN(C)[C@H]1CCc2nc(NC(=O)c3cccc([C@H]4CCCN4C(=O)c4cc(-c5ccncc5)[nH]n4)c3)sc2C1 [Compound 96]
- IC50 [2]: 0.8 nM

Structure (SMILES): N#Cc1cccc(NC(=O)N2CCC[C@@H]2c2cccc(C(=O)Nc3nc4c(s3)CN(Cc3ccccc3)CC4)c2)c1 [Compound 105]
- IC50 [1]: 12.5 nM

Structure (SMILES): CN1CCc2ccc(NC(=O)c3cccc([C@H]4CCCN4C(=O)Nc4cccc(C#N)c4)c3)cc2C1 [Compound 109]
- IC50 [1]: 9.5 nM

Structure (SMILES): CN1CCc2nc(NC(=O)c3cccc(C4CCCCN4C(=O)Nc4cccc(C#N)c4)c3)sc2C1 (centres unmarked) [Compound 111]
- IC50 [1]: 39.3 nM

Structure (SMILES): CN1CCc2nc(NC(=O)c3cccc(C4CCCN(C(=O)Nc5cccc(C#N)c5)C4)c3)sc2C1 (centres unmarked) [Compound 115]
- IC50 [1]: 77.5 nM

Structure (SMILES): CN1CCc2nc(NC(=O)c3cccc(C4CCCCN4C(=O)Nc4ccc(C#N)cc4)c3)sc2C1 (centres unmarked) [Compound 117]
- IC50 [1]: 18.7 nM

Structure (SMILES): COc1ccc(C(=O)N[C@H](C)c2cccc(C(=O)Nc3ccc4c(c3)CN(C)CC4)c2)cc1OC [Compound 141]
- IC50 [1]: 8.9 nM

Structure (SMILES): COc1ccc(C(=O)N[C@H](C)c2cccc(C(=O)Nc3ccc4c(c3)CN(C)CC4)c2)cc1Cl [Compound 143]
- IC50 [1]: 14 nM

Structure (SMILES): COc1ccc(C(=O)N[C@H](C)c2cccc(C(=O)Nc3ccc4c(c3)CN(C)CC4)c2)cc1C [Compound 145]
- IC50 [1]: 10.5 nM

Structure (SMILES): C[C@@H](NC(=O)Nc1cccc(C#N)c1)c1cccc(C(=O)Nc2ccc3c(c2)CN(C)CC3)c1 [Compound 147]
- IC50 [1]: 18.9 nM

Structure (SMILES): C[C@@H](NC(=O)Nc1ccc(C#N)cc1)c1cccc(C(=O)Nc2ccc3c(c2)CN(C)CC3)c1 [Compound 149]
- IC50 [1]: 57.5 nM

Structure (SMILES): CN1CCc2nc(NC(=O)c3cccc([C@H]4CCCN4C(=O)c4cn5cc(C#N)ccc5n4)c3)sc2C1 [Compound 150]
- IC50 [1]: 25.5 nM

Structure (SMILES): C[C@@H](NC(=O)Nc1ccc(C(N)=O)cc1)c1cccc(C(=O)Nc2ccc3c(c2)CN(C)CC3)c1 [Compound 153]
- IC50 [1]: 9.5 nM

Structure (SMILES): CN1CCc2nc(NC(=O)c3cccc([C@H](NC(=O)Nc4cccc(C#N)c4)C4CC4)c3)sc2C1 [Compound 155]
- IC50 [1]: 9.7 nM

Structure (SMILES): CN1CCc2nc(NC(=O)c3cccc([C@H](NC(=O)Nc4ccc(C#N)cc4)C4CC4)c3)sc2C1 [Compound 157]
- IC50 [1]: 45.7 nM

From patent US9079880B2, “Rho kinase inhibitors” (Boehringer Ingelheim International GmbH, priority 2010, dated 2015)
